# Experimental data reported in patent US8110193B2, “Methods for conditioning a subject for hematopoietic cell transplantation” (City of Hope, priority 2007, dated 2012).
# Experiments:
# [1] = test system: IL-2, IFN-γ, TNF-α, and IL-6; assay: Serum cytokines after anti-CD3 injection (cytokine storm); type: in vivo, mouse (BALB/c)
# Description: (§1) C. […] There were seven mice in each group.
# host T cells = assay: Apoptosis and yield of residual host T cells in spleen of conditioned mice; type: in vivo, mouse (BALB/c); conditions: low-dose (40 or 100 μg/g) SAHA co-injected with anti-CD3
# [2] = Body temperature and tolerability after anti-CD3 injection
# [3] = test system: IL-2, IFN-γ, TNF-α, and IL-6; assay: Cytokines in culture supernatant of anti-CD3-stimulated spleen cells (ELISA); type: cell-based, mouse (BALB/c); conditions: 24, 48, 72 hours
# Description: as §1
# One of the side effects of anti-CD3-conditioning is the cytokine storm triggered by anti-CD3 activation of T cells. […] After anti-CD3-stimulation, IL-2 concentration peaked at 48 hours, and IFN-γ, TNF-α, and IL-6 all peaked at 72 hours after culture.
structure (smiles),measurement,setting,value
"O=C(CCCCCCC(=O)Nc1ccccc1)NO [SAHA, suberoylanilide hydroxamic acid]","reduction of serum IL-2, IFN-γ, TNF-α, IL-6 at peak time points vs anti-CD3 alone",[1]; SAHA 40 μg/g co-injected with anti-CD3 5 μg/g,more than 2 fold
same,serum cytokine reduction compared to SAHA 40 μg/g,"[1]; SAHA 200 μg/g co-injected with anti-CD3, data not shown",reductions in serum cytokine levels that were similar
same,apoptosis of host T cells and yield of residual live T cells in spleen,host T cells,did not significantly increase apoptosis of host T cells or reduce the yield of residual live T cells
same,hypothermia after anti-CD3 injection,[2]; SAHA 40 μg/g co-injected with anti-CD3,significantly reduced hypothermia
same,adverse signs,[2]; SAHA 200 μg/g co-injected with anti-CD3,severe diarrhea
same,mice that died,"[2]; SAHA 200 μg/g co-injected, five days after anti-CD3-conditioning",30%
same,"IL-2, IFN-γ, TNF-α, IL-6 production in culture",[3]; 0.5 μM SAHA,reduced cytokine production significantly at all time points
same,"IL-2, IFN-γ, TNF-α, IL-6 production in culture",[3]; 1 μM SAHA,nearly undetectable
